# Test results from ChEMBL document CHEMBL1201862, “PubChem BioAssay data set” (2004).
# Activity calls are given as the source filed them. Cut-off read from the data, not from the text of the source, for most assays here: actives have a measured EC50 and inactives only a lower limit.
# Key:
# [1] = biological target: T1, Zinc finger protein mex-5 (Caenorhabditis elegans, UniProt Q9XUB2); test: potency of MEX-5 RNA-binding blockers – biochemical, C. elegans, fluorescence polarization, dose response (AID 1960)
# T1 sequence (Q9XUB2 whole entry): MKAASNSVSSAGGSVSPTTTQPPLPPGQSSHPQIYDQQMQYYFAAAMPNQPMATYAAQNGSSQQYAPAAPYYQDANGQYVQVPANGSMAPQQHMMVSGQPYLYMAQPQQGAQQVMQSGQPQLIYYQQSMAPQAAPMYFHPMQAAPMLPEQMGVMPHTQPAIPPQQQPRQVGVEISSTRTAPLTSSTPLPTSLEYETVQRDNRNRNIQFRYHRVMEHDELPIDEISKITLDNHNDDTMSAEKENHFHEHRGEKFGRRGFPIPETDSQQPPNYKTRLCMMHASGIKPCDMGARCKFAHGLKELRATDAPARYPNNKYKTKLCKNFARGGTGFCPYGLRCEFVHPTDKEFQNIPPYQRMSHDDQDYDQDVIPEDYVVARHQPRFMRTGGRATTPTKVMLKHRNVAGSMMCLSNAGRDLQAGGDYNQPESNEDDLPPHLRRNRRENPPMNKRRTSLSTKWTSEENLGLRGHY
# [2] = biological target: T2, RNA-binding protein pos-1 (Caenorhabditis elegans, UniProt G5EF15); test: disruptors of C. elegans POS-1 RNA interaction – biochemical, fluorescence polarization, dose response (AID 1964);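 note: purified POS-1 fused to maltose binding protein made in E. coli; potency of compounds blocking POS-1 binding to fluorescent RNA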
# T2 sequence (G5EF15 whole entry): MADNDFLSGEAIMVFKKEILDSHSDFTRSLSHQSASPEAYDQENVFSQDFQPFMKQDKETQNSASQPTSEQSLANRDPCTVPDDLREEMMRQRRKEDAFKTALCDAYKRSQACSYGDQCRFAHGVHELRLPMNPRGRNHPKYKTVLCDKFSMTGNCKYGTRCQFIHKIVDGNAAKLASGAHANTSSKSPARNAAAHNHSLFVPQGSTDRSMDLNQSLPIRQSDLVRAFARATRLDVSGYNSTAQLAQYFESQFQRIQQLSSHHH
# Protein RecA = biological target: T3, Protein RecA (Mycobacterium tuberculosis, UniProt P9WHJ3); test: Fluorescence Cell-Free Homogeneous Dose Retest to Identify Inhibitors of RecA-Intein Splicing Activity. [Related pubchem assays (depositor defined):AID2097, AID2223, AID489010, AID492950]; format: functional
# T3 sequence (P9WHJ3 whole entry): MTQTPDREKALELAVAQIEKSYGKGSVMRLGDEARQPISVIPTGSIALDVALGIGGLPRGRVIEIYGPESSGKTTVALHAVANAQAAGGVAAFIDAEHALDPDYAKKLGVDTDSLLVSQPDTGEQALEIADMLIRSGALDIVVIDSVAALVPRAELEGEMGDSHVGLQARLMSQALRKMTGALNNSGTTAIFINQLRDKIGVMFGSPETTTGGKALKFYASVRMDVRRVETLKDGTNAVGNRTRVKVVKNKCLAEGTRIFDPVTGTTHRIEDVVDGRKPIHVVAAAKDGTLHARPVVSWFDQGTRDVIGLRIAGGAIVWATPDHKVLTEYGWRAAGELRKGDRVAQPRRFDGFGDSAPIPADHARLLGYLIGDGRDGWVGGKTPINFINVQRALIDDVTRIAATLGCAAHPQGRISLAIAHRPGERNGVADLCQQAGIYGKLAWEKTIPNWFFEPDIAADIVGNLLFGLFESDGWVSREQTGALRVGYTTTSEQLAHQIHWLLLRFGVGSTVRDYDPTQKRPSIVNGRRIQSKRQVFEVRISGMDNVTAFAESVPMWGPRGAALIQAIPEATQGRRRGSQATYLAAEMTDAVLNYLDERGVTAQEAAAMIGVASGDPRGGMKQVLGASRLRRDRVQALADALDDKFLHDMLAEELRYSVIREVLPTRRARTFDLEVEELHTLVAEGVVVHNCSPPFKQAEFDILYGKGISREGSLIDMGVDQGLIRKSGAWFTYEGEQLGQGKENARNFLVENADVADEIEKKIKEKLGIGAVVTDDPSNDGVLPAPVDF
# Genome polyprotein = Genome polyprotein (dengue virus type 2, UniProt P29990); test: flavivirus cap methylation enzyme inhibition – biochemical, confirmation dose response, primary screen (AID 588689); format: functional
# Sequence of Genome polyprotein (P29990 2492-3391 limits assumed): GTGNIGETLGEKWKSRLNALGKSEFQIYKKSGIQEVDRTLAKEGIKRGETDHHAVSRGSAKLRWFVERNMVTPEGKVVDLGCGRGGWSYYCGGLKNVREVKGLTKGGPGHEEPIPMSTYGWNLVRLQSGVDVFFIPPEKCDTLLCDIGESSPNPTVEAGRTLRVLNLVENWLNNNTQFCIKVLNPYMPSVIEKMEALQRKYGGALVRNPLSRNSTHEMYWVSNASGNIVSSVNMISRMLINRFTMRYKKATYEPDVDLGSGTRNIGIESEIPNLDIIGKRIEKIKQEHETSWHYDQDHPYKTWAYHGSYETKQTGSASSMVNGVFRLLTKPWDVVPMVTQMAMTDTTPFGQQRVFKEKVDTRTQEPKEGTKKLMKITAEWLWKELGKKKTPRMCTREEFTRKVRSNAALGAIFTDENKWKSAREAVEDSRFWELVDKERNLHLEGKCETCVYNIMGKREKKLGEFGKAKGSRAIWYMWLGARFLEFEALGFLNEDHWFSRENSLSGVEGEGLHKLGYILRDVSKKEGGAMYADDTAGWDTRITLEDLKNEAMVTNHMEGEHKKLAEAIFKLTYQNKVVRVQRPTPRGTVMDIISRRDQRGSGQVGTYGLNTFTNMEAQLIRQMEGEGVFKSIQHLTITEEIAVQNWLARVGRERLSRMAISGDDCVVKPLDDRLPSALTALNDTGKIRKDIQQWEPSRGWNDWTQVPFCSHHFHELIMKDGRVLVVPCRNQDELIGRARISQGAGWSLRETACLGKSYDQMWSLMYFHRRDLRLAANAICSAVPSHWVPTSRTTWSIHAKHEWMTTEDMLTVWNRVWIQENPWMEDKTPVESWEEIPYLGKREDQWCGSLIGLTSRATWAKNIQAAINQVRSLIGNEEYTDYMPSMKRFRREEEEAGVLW
# [3] = biological target: T4, Mannose-6-phosphate isomerase (Homo sapiens, UniProt P34949); test: MPI inhibition at elevated mannose 6-phosphate – biochemical, fluorescence intensity, high mannose 6-phosphate, primary screen (AID 1220)
# T4 sequence (P34949 whole entry): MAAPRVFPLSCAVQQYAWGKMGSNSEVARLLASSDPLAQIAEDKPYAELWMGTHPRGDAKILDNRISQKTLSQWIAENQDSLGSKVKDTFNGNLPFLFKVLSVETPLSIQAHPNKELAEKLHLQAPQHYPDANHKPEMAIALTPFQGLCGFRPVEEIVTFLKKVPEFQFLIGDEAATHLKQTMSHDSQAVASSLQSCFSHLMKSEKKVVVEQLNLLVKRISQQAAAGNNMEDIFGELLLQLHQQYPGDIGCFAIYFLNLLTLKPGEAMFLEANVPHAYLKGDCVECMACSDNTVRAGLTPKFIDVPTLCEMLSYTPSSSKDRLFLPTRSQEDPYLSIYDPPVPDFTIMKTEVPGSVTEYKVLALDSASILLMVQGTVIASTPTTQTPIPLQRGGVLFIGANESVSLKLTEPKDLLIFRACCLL
Structure (SMILES),EC50 [1],EC50 [2],EC50 (Protein RecA),IC50 (Genome polyprotein),IC50 [3]
Cc1cc(C)c(S(=O)(=O)Nc2cc(SCC(=O)O)c(O)c3ccccc23)cc1C,38.6 µM (active),> 300 µM (not active),0.277 µM (active),–,–
O=C(O)c1cc(N2N=C(C(F)(F)F)/C(=C/C=C/c3ccco3)C2=O)ccc1Cl,–,–,–,24.2 µM (active),> 50 µM (not active)
O=C(/C=C/c1ccco1)NC(=S)Nc1cccc(C(=O)O)c1,8.73 µM (active),8.57 µM (active),–,–,–
CNCc1ccccc1Sc1ccc(O)c(O)c1,22.6 µM (inconclusive),34.8 µM (active),2.57 µM (active),21.2 µM (active),25.9 µM (active)
